Legend:
[1] = biological target: JAK-2 enzyme (Homo sapiens, UniProt O60674); experiment: JAK2 Inhibition Assay
Procedure: Reactions were carried out in a kinase buffer containing 100 mM HEPES (pH 7.4), 1 mM DTT, 10 mM MgCl2, 25 mM NaCl, and 0.01% BSA. Substrate concentrations in the assay were 5 μM ATP (200 uCi/μmole ATP) and 1 μM poly(Glu)4Tyr. Reactions were carried out at 25° C. and 1 nM JAK3.
To each well of a 96 well polycarbonate plate was added 1.5 μl of a candidate JAK3 inhibitor along with 50 μl of kinase buffer containing 2 μM poly(Glu)4Tyr and 10 μM ATP. This was then mixed and 50 μl of kinase buffer containing 2 nM JAK3 enzyme was added to start the reaction. After 20 minutes at room temperature (25° C.), the reaction was stopped with 50 μl of 20% trichloroacetic acid (TCA) that also contained 0.4 mM ATP. The entire contents of each well were then transferred to a 96 well glass fiber filter plate using a TomTek Cell Harvester. After washing, 60 μl of scintillation fluid was added and ^33P incorporation detected on a Perkin Elmer TopCount.

[2] = biological target: T1, JAK3 (Homo sapiens, UniProt P52333); experiment: JAK3 Inhibition Assay; type: biochemical; conditions: 1 nM JAK3, 1 μM poly(Glu)4Tyr, 5 μM ATP, 25° C., 33P incorporation
T1 sequence (P52333 1-1124): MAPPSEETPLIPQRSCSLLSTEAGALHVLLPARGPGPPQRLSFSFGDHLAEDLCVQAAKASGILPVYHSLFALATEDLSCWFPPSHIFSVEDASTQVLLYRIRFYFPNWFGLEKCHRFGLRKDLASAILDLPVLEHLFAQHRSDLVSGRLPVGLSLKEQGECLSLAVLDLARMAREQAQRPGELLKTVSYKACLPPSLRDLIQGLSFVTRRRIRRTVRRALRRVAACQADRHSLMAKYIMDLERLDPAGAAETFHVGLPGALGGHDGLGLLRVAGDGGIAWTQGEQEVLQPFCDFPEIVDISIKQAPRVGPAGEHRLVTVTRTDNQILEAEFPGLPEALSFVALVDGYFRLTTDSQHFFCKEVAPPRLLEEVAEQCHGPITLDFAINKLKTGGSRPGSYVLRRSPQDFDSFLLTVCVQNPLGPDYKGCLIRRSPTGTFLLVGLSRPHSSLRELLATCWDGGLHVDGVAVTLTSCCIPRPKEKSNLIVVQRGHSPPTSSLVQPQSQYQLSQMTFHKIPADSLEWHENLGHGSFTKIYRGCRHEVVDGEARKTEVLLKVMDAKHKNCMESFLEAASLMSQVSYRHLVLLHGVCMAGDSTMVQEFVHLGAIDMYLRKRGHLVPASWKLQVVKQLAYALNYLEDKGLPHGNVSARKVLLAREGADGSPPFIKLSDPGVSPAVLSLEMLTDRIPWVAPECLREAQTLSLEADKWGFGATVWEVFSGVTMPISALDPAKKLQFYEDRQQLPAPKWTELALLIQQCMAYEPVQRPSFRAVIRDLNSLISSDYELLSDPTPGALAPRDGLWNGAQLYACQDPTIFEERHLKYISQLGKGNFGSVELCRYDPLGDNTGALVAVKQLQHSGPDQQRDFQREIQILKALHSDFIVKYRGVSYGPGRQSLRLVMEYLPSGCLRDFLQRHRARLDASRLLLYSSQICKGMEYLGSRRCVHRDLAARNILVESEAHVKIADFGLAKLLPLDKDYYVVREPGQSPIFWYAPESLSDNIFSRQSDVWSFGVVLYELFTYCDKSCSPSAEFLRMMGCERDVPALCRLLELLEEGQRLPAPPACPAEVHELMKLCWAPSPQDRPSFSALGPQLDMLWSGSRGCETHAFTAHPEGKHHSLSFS

JAK-2 enzyme, sequence (O60674 whole entry): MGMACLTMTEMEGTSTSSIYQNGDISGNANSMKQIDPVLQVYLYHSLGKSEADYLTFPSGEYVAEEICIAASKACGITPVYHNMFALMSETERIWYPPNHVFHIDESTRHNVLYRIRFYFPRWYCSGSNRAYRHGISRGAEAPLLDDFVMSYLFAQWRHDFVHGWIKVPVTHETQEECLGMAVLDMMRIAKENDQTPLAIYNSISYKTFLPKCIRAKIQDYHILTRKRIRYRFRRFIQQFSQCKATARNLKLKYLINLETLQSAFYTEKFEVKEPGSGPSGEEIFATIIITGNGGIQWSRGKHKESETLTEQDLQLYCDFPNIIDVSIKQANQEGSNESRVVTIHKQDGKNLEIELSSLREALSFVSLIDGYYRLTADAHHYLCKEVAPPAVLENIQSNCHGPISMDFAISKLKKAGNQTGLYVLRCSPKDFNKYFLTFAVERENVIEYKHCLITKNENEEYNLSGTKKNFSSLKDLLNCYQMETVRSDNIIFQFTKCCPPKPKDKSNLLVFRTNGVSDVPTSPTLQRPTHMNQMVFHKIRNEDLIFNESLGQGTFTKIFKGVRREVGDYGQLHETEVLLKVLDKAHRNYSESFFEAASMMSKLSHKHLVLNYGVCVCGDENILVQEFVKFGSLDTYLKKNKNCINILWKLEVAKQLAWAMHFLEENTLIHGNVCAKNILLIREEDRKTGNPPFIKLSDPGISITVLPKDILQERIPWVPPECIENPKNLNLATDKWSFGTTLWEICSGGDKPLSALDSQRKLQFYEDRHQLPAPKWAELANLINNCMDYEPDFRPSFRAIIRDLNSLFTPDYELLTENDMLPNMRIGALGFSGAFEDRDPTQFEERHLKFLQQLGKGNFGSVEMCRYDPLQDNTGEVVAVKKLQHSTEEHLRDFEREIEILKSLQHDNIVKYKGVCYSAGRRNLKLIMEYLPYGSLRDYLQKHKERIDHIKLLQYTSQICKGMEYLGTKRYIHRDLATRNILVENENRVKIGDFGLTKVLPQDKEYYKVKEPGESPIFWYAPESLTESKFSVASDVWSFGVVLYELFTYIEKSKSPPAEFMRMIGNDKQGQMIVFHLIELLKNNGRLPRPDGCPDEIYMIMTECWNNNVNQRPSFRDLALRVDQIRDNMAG

Row | Compound | Ki [1] [nM] | Ki [2] [nM]
1 | C[C@H](Nc1ccnc(-c2cnn3cccnc23)n1)c1ccc(F)cc1 [Compound 224] | 10 to 100 | 100 to 500
2 | C[C@@H](Oc1cc(-c2c(N)nn3cccnc23)ncn1)c1ccccc1 [Compound 67] | 10 to 100 | 100 to 500
3 | C[C@H](Nc1cc(-c2c(N)nn3cccnc23)nc(OCC2CCC2)n1)c1ccc(F)cc1 [Compound 148] | 10 to 100 | 100 to 500
4 | CCC[C@@H](Nc1cc(-c2cnn3cccnc23)ncn1)c1ccc(F)cc1F [Compound 123] | 10 to 100 | 100 to 500
5 | COc1cc2c(cc1OC)CN(c1cc(-c3c(N)nn4cccnc34)ncn1)CC2 [Compound 35] | 100 to 500 | 100 to 500
6 | CC(C)=CCOc1nc(N[C@@H](C)c2ccc(F)cc2)cc(-c2c(N)nn3cccnc23)n1 [Compound 152] | 10 to 100 | 10 to 100
7 | CC1CC1COc1nc(N[C@@H](C)c2ccc(F)cc2)cc(-c2c(N)nn3cccnc23)n1 (stereo partly drawn) [Compound 158] | 10 to 100 | 100 to 500
8 | Nc1nn2cccnc2c1-c1cc(O[C@H](c2ccccc2)C(F)(F)F)ncn1 [Compound 69] | 10 to 100 | 100 to 500
9 | CCC[C@@H](Nc1cc(-c2c(N)nn3cccnc23)ncn1)c1ccc(F)c(F)c1 [Compound 97] | 10 to 100 | 100 to 500
10 | C[C@H](Nc1ccnc(-c2cnn3cccnc23)n1)c1ccc(Cl)cc1 [Compound 226] | 100 to 500 | 500 to 5000
11 | O=C(Nc1ccnc(-c2cnn3cccnc23)c1)c1ccc(F)c(F)c1 [Compound 231] | 100 to 500 | 500 to 5000
12 | Nc1nn2cccnc2c1-c1cc(N[C@H]2CCCc3ccccc32)ncn1 [Compound 76] | 10 to 100 | 100 to 500
13 | C[C@H](Nc1cc(-c2c(N)nn3cccnc23)nc(OCC2CCCN2)n1)c1ccc(F)cc1F (stereo partly drawn) [Compound 142] | 10 to 100 | 100 to 500
14 | Nc1nn2cccnc2c1-c1cc(O[C@@H](c2ccccc2)C(F)(F)F)ncn1 [Compound 70] | 100 to 500 | 500 to 5000
15 | CCC[C@H](Nc1cc(-c2c(N)nn3cccnc23)ncn1)c1ccc(F)c(F)c1 [Compound 98] | < 10 | 10 to 100
16 | C=CCCCOc1nc(N[C@@H](C)c2ccc(F)cc2)cc(-c2c(N)nn3cccnc23)n1 [Compound 182] | 10 to 100 | 100 to 500
17 | C[C@H](Nc1cc(-c2c(N)nn3ccc(C(F)(F)F)nc23)ncn1)c1ccc(F)cc1F [Compound 135] | 10 to 100 | 100 to 500
18 | CCC[C@H](Nc1cc(-c2cnn3cccnc23)ncn1)c1ccc(F)cc1F [Compound 122] | < 10 | 10 to 100
19 | CC(C)[C@H](Nc1cc(-c2cnn3cccnc23)ncn1)c1ccc(F)cc1F [Compound 121] | < 10 | 10 to 100
20 | CC(C)OCCOc1nc(N[C@@H](C)c2ccc(F)cc2)cc(-c2c(N)nn3cccnc23)n1 [Compound 149] | < 10 | 10 to 100
21 | C[C@H](Nc1cc(-c2c(N)nn3cccnc23)nc(OCCCN(C)C)n1)c1ccc(F)cc1 [Compound 154] | < 10 | 10 to 100

Results, then the compound that gave them:

Row | Ki [1] [nM] | Ki [2] [nM] | Compound
22 | < 10 | 100 to 500 | C[C@H](Nc1cc(-c2cnn3cccnc23)nc(OCC2CCCN2)n1)c1ccc(F)cc1F (stereo partly drawn) [Compound 216]
23 | < 10 | 10 to 100 | C[C@H](Nc1cc(-c2c(N)nn3cccnc23)nc(NCCN2CCOCC2)n1)c1ccc(F)cc1 [Compound 124]
24 | < 10 | 10 to 100 | CSCCCOc1nc(N[C@@H](C)c2ccc(F)cc2)cc(-c2c(N)nn3cccnc23)n1 [Compound 172]
25 | < 10 | 10 to 100 | Nc1nn2cccnc2c1-c1cc(NCc2ccccc2OC(F)(F)F)ncn1 [Compound 14]
26 | < 10 | 10 to 100 | C[C@H](Nc1cc(-c2cnn3cccnc23)nc(OCCN2CCOCC2)n1)c1ccc(F)cc1F [Compound 213]
27 | < 10 | 100 to 500 | C[C@H](Nc1cc(-c2cnn3cccnc23)ncn1)c1ccc(Cl)cc1 [Compound 144]
28 | < 10 | 10 to 100 | C[C@H](Nc1cc(-c2cnn3cccnc23)ncn1)c1ccc(F)cc1 [Compound 114]
29 | < 10 | 100 to 500 | C[C@H](Nc1cc(-c2c(N)nn3cccnc23)nc(OCC(F)(F)F)n1)c1ccc(F)cc1 [Compound 156]
30 | < 10 | 10 to 100 | CSc1nc(N[C@@H](C)c2ccc(F)cc2)cc(-c2c(N)nn3cccnc23)n1 [Compound 92]
31 | < 10 | 10 to 100 | Cc1ccn2nc(N)c(-c3cc(N[C@@H](C)c4ccc(F)cc4)ncn3)c2n1 [Compound 95]
32 | < 10 | 10 to 100 | CCN(CC)CCOc1nc(N[C@@H](C)c2ccc(F)cc2F)cc(-c2cnn3cccnc23)n1 [Compound 208]
33 | < 10 | 10 to 100 | C#CCOc1nc(N[C@@H](C)c2ccc(F)cc2)cc(-c2c(N)nn3cccnc23)n1 [Compound 150]
34 | < 10 | 10 to 100 | C[C@H](Nc1cc(-c2cnn3cccnc23)nc(OCCN2CCCCCC2)n1)c1ccc(F)cc1F [Compound 217]
35 | < 10 | 10 to 100 | COC(C)(C)CCOc1nc(N[C@@H](C)c2ccc(F)cc2)cc(-c2c(N)nn3cccnc23)n1 [Compound 178]
36 | < 10 | < 10 | C[C@H](Nc1cc(-c2c(N)nn3cccnc23)nc(C#N)n1)c1ccc(F)cc1F [Compound 140]
37 | < 10 | 10 to 100 | C[C@H](Nc1cc(-c2c(N)nn3cccnc23)nc(N2CCOCC2)n1)c1ccc(F)cc1F [Compound 106]
38 | < 10 | 10 to 100 | C[C@H](Nc1cc(-c2c(N)nn3cccnc23)nc(N2CCC(N(C)C)C2)n1)c1ccc(F)cc1 (stereo partly drawn) [Compound 190]
39 | < 10 | 10 to 100 | C[C@H](Nc1cc(-c2c(N)nn3cccnc23)nc(OCC2CCOC2)n1)c1ccc(F)cc1 (stereo partly drawn) [Compound 164]

Source: patent US8937064B2, “Pyrazolo[1,5-a]pyrimidines useful as JAK2 inhibitors” (Vertex Pharmaceuticals Incorporated, priority 2007, dated 2015)
